Test results published in US11992497B2 (priority 2021, dated 2024).

Assays:
rUGT2B7 = molecular target: T1, rUGT2B7 (Homo sapiens, UniProt P16662); assay: Inhibition of CBG glucuronidation by Compound 1; format: biochemical; conditions: for CBG detected, Percent of control / CBG glucuronide formed, Percent of control: rUGT2B7; for CBG detected / CBG glucuronide formed: rUGT2B7, 5 min
T1 sequence (P16662 24-529): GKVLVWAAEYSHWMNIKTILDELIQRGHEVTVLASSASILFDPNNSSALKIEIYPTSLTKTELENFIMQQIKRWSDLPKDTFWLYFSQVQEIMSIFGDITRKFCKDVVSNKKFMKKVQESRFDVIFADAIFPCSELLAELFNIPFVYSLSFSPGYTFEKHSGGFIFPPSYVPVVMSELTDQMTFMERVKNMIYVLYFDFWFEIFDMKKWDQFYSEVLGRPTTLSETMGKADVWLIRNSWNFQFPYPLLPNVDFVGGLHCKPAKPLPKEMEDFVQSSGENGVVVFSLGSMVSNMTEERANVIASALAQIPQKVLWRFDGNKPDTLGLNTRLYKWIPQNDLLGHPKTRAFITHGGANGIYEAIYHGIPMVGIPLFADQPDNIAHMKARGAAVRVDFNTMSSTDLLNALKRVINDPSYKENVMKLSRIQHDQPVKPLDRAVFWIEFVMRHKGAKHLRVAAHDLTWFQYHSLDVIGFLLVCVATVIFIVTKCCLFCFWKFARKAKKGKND
Experimental: The purpose of this experiment was to determine if Compound 1 can inhibit the glucuronidation of CBG, as both are substrates for the two major isoforms responsible for CBG glucuronidation.
The ability of Compound 1 to inhibit the metabolism of CBG by UGT1A9 and UGT2B7 enzymes was investigated to ascertain the ICso values for direct inhibition. The incubation conditions (substrate concentration, incubation time and protein concentration) were determined in Part 2 of the protocol such that CBG metabolism remains near initial rate conditions (e.g., 20-30% substrate loss).
Preliminary experiments were conducted in Part I of the protocol, first to establish the HPLC/MS/MS bioanalytical methods for CBG and CBG glucuronide. […] The second set of preliminary experiments (Part 2), as mentioned, were conducted to optimize the incubation conditions as described above. Incubations (at 37 C) contained Tris-HCl buffer (100 mM, pH 7.7), MgCl2 (10 mM), EDTA (1 mM, pH 7.4) and UDP-glucuronic acid (UDPGA, 10 mM). CBG was added to each incubation in DMSO such that the final percent of DMSO was 1% v/v, or less. Reactions were terminated by the addition of an equal volume of stop reagent, acetonitrile containing an internal standard. The samples were centrifuged (e.g., 920 RCF for 10 minutes at 10° C.), and the supernatant fractions were analyzed by LC-MS/MS to determine the amount of CBG remaining and formation of one metabolite (CBG glucuronide).
To examine its ability to act as a direct inhibitor of the above listed enzymes, Compound 1 was be added to recombinant human UGT enzyme together with CBG. Reactions were initiated with UDPGA and were carried out in duplicate. For all assays, reactions were terminated by the addition of acetonitrile with or without 2% v/v formic acid, including the internal standard.
Authentic metabolite reference standards were used for quantitation of the probe substrate metabolites and as internal standards. Based on the information obtained in the Part 2 experiments, the following table summarizes the experiments performed, assessing the inhibitory effects of Compound 1 was conducted as follows:
The amounts of CBG present at the end of the incubation periods was determined. For inhibition to have occurred, the amounts of CBG present at the end of the incubation period needed to increase, and the amounts of glucuronide formed needed to decrease.

[1] = Hepatocyte stability and metabolite profiling; format: in vitro ADME; conditions: cryopreserved hepatocytes in suspension; Mouse cryopreserved hepatocytes
Experimental: The objective of this study was to investigate the stability of the test compound, CBG, in human, rat, dog, mouse, monkey and minipig cryopreserved hepatocytes. Follow-on metabolite profiling was performed.
CBG was incubated up to 2 hr with cryopreserved hepatocytes. Cryopreserved hepatocytes in suspension were added to test compound in supplemented media following pre-incubation to initiate the reaction and the reactions were stopped by organic solvent at the appropriate time points. The termination plates were centrifuged and sample supernatants were analysed using Cyprotex generic LC MS/MS conditions to generate intrinsic clearance values for CBG. Two control compounds for each species were included in the assay and if the values for these compounds were not within the specified limits the results were rejected and the experiment repeated.
Following the hepatocyte stability assay the samples were 59tilized for metabolite profiling using suitable high-resolution LC-MS/MS conditions. The 40 and 60 minute human samples, 20 and 120 minute rat samples, 10 and 20 minute dog and monkey samples, 20 and 60 minute mouse samples, and 40 and 120 minute minipig samples were compared against the 0 minute control sample to establish which and how many metabolites were formed. […]
The areas and percentages reported for the parent and metabolites were calculated using the XIC data. […]

For `CCCCCc1cc(O)c(C/C=C(\C)CCC=C(C)C)c(OC)c1` [Compound 1, (E)-2-(3,7-dimethylocta-2,6-dien-1-yl)-3-methoxy-5-pentylphenol], the “CBG detected, Percent of control” value (rUGT2B7; 10 μM CBG + 0.01 μM Compound 1) was 103% of control, the “CBG glucuronide formed, Percent of control” value (rUGT2B7; 10 μM CBG + 0.01 μM Compound 1) was 104% of control and the CBG detected (rUGT2B7; 10 μM CBG + 0.01 μM Compound 1) was 1370 pmol. For the same molecule, the CBG glucuronide formed (rUGT2B7; 10 μM CBG + 0.01 μM Compound 1) was 260000 area ratio, the “CBG detected, Percent of control” value (rUGT2B7; 10 μM CBG + 0.03 μM Compound 1) was 109% of control and the “CBG glucuronide formed, Percent of control” value (rUGT2B7; 10 μM CBG + 0.03 μM Compound 1) was 101% of control. The CBG detected (rUGT2B7; 10 μM CBG + 0.03 μM Compound 1) was 1460 pmol, the CBG glucuronide formed (rUGT2B7; 10 μM CBG + 0.03 μM Compound 1) was 252000 area ratio and the “CBG detected, Percent of control” value (rUGT2B7; 10 μM CBG + 0.1 μM Compound 1) was 106% of control. For the same molecule, the “CBG glucuronide formed, Percent of control” value (rUGT2B7; 10 μM CBG + 0.1 μM Compound 1) was 103% of control, the CBG detected (rUGT2B7; 10 μM CBG + 0.1 μM Compound 1) was 1410 pmol and the CBG glucuronide formed (rUGT2B7; 10 μM CBG + 0.1 μM Compound 1) was 257000 area ratio. The “CBG detected, Percent of control” value (rUGT2B7; 10 μM CBG + 0.3 μM Compound 1) was 109% of control, the “CBG glucuronide formed, Percent of control” value (rUGT2B7; 10 μM CBG + 0.3 μM Compound 1) was 105% of control and the CBG detected (rUGT2B7; 10 μM CBG + 0.3 μM Compound 1) was 1450 pmol. The CBG glucuronide formed (rUGT2B7; 10 μM CBG + 0.3 μM Compound 1) was 262000 area ratio, the “CBG detected, Percent of control” value (rUGT2B7; 10 μM CBG + 1 μM Compound 1) was 109% of control and the “CBG glucuronide formed, Percent of control” value (rUGT2B7; 10 μM CBG + 1 μM Compound 1) was 102% of control. The CBG detected (rUGT2B7; 10 μM CBG + 1 μM Compound 1) was 1460 pmol, the CBG glucuronide formed (rUGT2B7; 10 μM CBG + 1 μM Compound 1) was 253000 area ratio and the “CBG detected, Percent of control” value (rUGT2B7; 10 μM CBG + 3 μM Compound 1) was 108% of control. The “CBG glucuronide formed, Percent of control” value (rUGT2B7; 10 μM CBG + 3 μM Compound 1) was 101% of control, the CBG detected (rUGT2B7; 10 μM CBG + 3 μM Compound 1) was 1440 pmol and the CBG glucuronide formed (rUGT2B7; 10 μM CBG + 3 μM Compound 1) was 252000 area ratio. For the same molecule, the “CBG detected, Percent of control” value (rUGT2B7; 10 μM CBG + 10 μM Compound 1) was 111% of control, the “CBG glucuronide formed, Percent of control” value (rUGT2B7; 10 μM CBG + 10 μM Compound 1) was 96.0% of control and the CBG detected (rUGT2B7; 10 μM CBG + 10 μM Compound 1) was 1470 pmol. The CBG glucuronide formed (rUGT2B7; 10 μM CBG + 10 μM Compound 1) was 239000 area ratio and the “inhibition of the conversion of CBG to a glucuronide (in words)” value (rUGT2B7; UGT2B7, 0.01-10 μM Compound 1) was “not an effective inhibitor”.
`CCCCCc1cc(O)c(C/C=C(\C)CCC=C(C)C)c(O)c1` [CBG, cannabigerol] showed a half-life [1] of 42.2 min and a hepatocyte CLint [1] of 32.8 µL/min/1e6 cells.
